According to US9062057B2, “CCR5 antagonists for treating HIV” (Purdue Research Foundation, priority 2010, dated 2015):

Biological target: CCR5 chemokine receptor (Homo sapiens, UniProt P51681)
Experiment: Inhibition Data (IC50; no method described)
Conditions: assay not described, read-out: Activity (*) (IC50 class)

Sequence of CCR5 chemokine receptor (P51681 whole entry): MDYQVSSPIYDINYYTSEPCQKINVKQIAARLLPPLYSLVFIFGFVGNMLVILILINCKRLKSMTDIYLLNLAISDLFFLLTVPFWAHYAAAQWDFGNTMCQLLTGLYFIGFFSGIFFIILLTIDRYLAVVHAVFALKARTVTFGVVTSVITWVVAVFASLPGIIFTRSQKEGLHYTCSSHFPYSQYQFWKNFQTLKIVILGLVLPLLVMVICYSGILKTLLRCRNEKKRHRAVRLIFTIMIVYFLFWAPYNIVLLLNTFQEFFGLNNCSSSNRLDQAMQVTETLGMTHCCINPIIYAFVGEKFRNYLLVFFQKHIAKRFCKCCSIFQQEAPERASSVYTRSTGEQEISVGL

Compound | IC50
CN(CC(C)(CCN1CCC2C(CCN2C(=O)OC(C)(C)C)C1)c1ccccc1)S(=O)(=O)c1ccc(C(=O)OCc2ccccc2)cc1 (centres unmarked) [Example 33] | < 1000 nM
CN(C[C@@](C)(CCN1CC[C@H]2CN(C(=O)OCc3ccccc3)C[C@H]2C1)c1ccccc1)S(=O)(=O)c1ccccc1 [Example 7] | < 100 nM
CC(C)[C@H](NC(=O)OCc1ccccc1)C(=O)N1CC2CN(C(=O)OC(C)(C)C)CC[C@H]2C1 (some centres unmarked) [Example 72] | < 1000 nM
CN(CC(C)(CCN1CCC2C(CCN2C(=O)OC(C)(C)C)C1)c1ccccc1)S(=O)(=O)c1ccc(C(=O)O)cc1 (centres unmarked) [Example 34] | < 100 nM
C[C@H](c1ccccc1)N(C)C(=O)N1C[C@H]2CN(CC[C@](C)(CN(C)S(=O)(=O)c3ccccc3)c3ccccc3)CC[C@H]2C1 [Example 15] | < 100 nM
Cc1nnc(C2CO[C@H]3OCCC23)n1C1CC2CCC(C1)N2CC[C@H](NS(=O)(=O)c1ccc2c(c1)OCO2)c1ccccc1 (some centres unmarked) [Example 81] | < 1000 nM
C[C@H](NC(=O)N1C[C@H]2CN(CC[C@](C)(CN(C)S(=O)(=O)c3ccccc3)c3ccccc3)CC[C@H]2C1)c1ccccc1 [Example 14] | < 1000 nM
CN(C[C@@](C)(CCN1C[C@H]2CCN(C(=O)OC(C)(C)C)C[C@H]2C1)c1ccccc1)S(=O)(=O)c1ccccc1 [Example 10] | < 100 nM
CO[C@](CCN1CCC2C(CCN2C(=O)OC(C)(C)C)C1)(CN(C)S(=O)(=O)c1ccccc1)c1ccccc1 (some centres unmarked) [Example 31] | < 1000 nM
CN(C[C@@](C)(CCN1CC2CCN(C(=O)OC(C)(C)C)C2C1)c1ccccc1)S(=O)(=O)c1ccccc1 (some centres unmarked) [Example 22] | < 1000 nM
CN(C[C@@](C)(CCN1CCC2(CCCN2C(=O)OC(C)(C)C)CC1)c1ccccc1)S(=O)(=O)c1ccccc1 [Example 65] | < 1000 nM
CN(C[C@@](C)(CCN1CCc2[nH][nH]c(=O)c2C1)c1ccccc1)S(=O)(=O)c1ccccc1 [Example 78] | < 1000 nM
CN(C[C@@](C)(CCN1C2CCC1CC(NC(=O)O[C@H]1CCOC1)C2)c1ccccc1)S(=O)(=O)c1ccccc1 (some centres unmarked) [Example 21] | < 100 nM
CC(=O)NCc1ccc(S(=O)(=O)N(C)CC(C)(CCN2CCC3C(CCN3C(=O)OC(C)(C)C)C2)c2ccccc2)cc1 (centres unmarked) [Example 38] | < 100 nM
CN(C[C@@](C)(CCN1CC[C@@H]2[C@@H](CCN2C(=O)OC(C)(C)C)C1)c1ccccc1)S(=O)(=O)c1ccccc1 [Example 1] | < 1 nM
CN(C[C@@](C)(CCN1C2CCC1CC(NC(=O)OCc1ccccc1)C2)c1ccccc1)S(=O)(=O)c1ccccc1 (some centres unmarked) [Example 5] | < 100 nM
COc1cccc(C(C)(CCN2CCC3C(CCN3C(=O)OC(C)(C)C)C2)CN(C)S(=O)(=O)c2ccccc2)c1 (centres unmarked) [Example 50] | < 1000 nM
CO[C@@](CCN1CCC2C(CCN2C(=O)OC(C)(C)C)C1)(CN(C)S(=O)(=O)c1ccccc1)c1ccccc1 (some centres unmarked) [Example 30] | < 1000 nM
COC(OC)c1ccc(S(=O)(=O)N(C)CC(C)(CCN2CCC3C(CCN3C(=O)OC(C)(C)C)C2)c2ccccc2)cc1 (centres unmarked) [Example 36] | < 100 nM
CN(C[C@@](C)(CCN1CC[C@H]2CN(C(=O)OCc3ccccc3)C[C@H]2C1)c1ccccc1)S(=O)(=O)c1ccccc1 [Example 11] | < 100 nM
CN1N=C2CCN(CC[C@](C)(CN(C)S(=O)(=O)c3ccccc3)c3ccccc3)CC2(C)C1=O (some centres unmarked) [Example 51] | < 1000 nM
CN(CC(C)(CCN1CCC2C(CCN2C(=O)OC(C)(C)C)C1)c1ccccc1)S(=O)(=O)c1ccc(CN)cc1 (centres unmarked) [Example 41] | < 1000 nM
CN(C[C@@](C)(CCN1CC[C@@H]2[C@@H](CCN2C(=O)OC(C)(C)C)C1)c1ccccc1)S(=O)(=O)c1ccccc1 [Example 44] | < 10 nM
CN(C[C@@](C)(CCN1CC[C@@H]2[C@@H](CCN2C(=O)OC(C)(C)C)C1)c1ccccc1)S(=O)(=O)c1ccccc1 [Example 46] | < 1000 nM
CN(CC(C)(CCN1CCC2C(CCN2C(=O)OC2CO[C@H]3OCCC23)C1)c1ccccc1)S(=O)(=O)c1ccccc1 (some centres unmarked) [Example 28] | < 100 nM
Cc1ccc(S(=O)(=O)N[C@@H](CCN2C3CCC2CC(n2c(C)nnc2C2CO[C@H]4OCCC24)C3)c2ccccc2)cc1 (some centres unmarked) [Example 83] | < 1000 nM

The remaining lines, values ahead:

IC50 | Compound
< 1000 nM | COC(=O)[C@@H](CCSC)NC(=O)C1CCN(CC[C@](C)(CN(C)S(=O)(=O)c2ccccc2)c2ccccc2)CC1 [Example 56]
< 10 nM | CN(CC(C)(CCN1CCC2C(CCN2C(=O)OC(C)(C)C)C1)c1ccccc1)S(=O)(=O)c1ccccc1 (centres unmarked) [Example 25]
< 1000 nM | CN1N=C2CCN(CC[C@](C)(CN(C)S(=O)(=O)c3ccccc3)c3ccccc3)CC2(Cc2ccccc2)C1=O (some centres unmarked) [Example 52]
< 1000 nM | CN(C[C@@](C)(CCN1CC[C@H]2[C@H](CCN2C(=O)OC(C)(C)C)C1)c1ccccc1)S(=O)(=O)c1ccc(CNC(=O)O[C@H]2CCOC2)cc1 [Example 3]
< 1000 nM | CC1CN(CC[C@](C)(CN(C)S(=O)(=O)c2ccccc2)c2ccccc2)CCC12C=Cc1ccccc12 (some centres unmarked) [Example 48]
< 10 nM | Cc1nnc(C(C)C)n1C1CC2CCC(C1)N2CC[C@](C)(CN(C)S(=O)(=O)c1ccccc1)c1ccccc1 (some centres unmarked) [Example 16]
< 1000 nM | CN(C[C@@](C)(CCN1CCC2(CC1)CCN(C(=O)OC(C)(C)C)C2)c1ccccc1)S(=O)(=O)c1ccccc1 [Example 58]
< 1000 nM | CN(C[C@@](C)(CCN1CC[C@H]2[C@H](CCN2C(=O)OC(C)(C)C)C1)c1ccccc1)S(=O)(=O)c1ccccc1 [Example 2]
< 1000 nM | CC(C)(C)OC(=O)N1CCC2CN(C(=O)[C@H](Cc3ccccc3)NC(=O)OCc3ccccc3)CCC21 (some centres unmarked) [Example 26]
< 1000 nM | Cc1nnc(C2CO[C@H]3OCCC23)n1C1CC2CCC(C1)N2CC[C@H](N)c1ccccc1 (some centres unmarked) [Example 82]
< 100 nM | CN(CC(C)(CCN1CCC2C(CCN2C(=O)OC(C)(C)C)C1)c1ccccc1)S(=O)(=O)c1ccccc1 (centres unmarked) [Example 32]
< 100 nM | CN(C[C@@](C)(CCN1C2CCC1CC(NC(=O)OCc1ccccc1)C2)c1ccccc1)S(=O)(=O)c1ccccc1 (some centres unmarked) [Example 6]
< 100 nM | CN(C[C@@](C)(CCN1CCC2C(CCN2C(=O)OC(C)(C)C)C1)c1ccccc1)S(=O)(=O)c1ccccc1 (some centres unmarked) [Example 43]
< 1000 nM | CN(C[C@@](C)(CCN1C2CCC1CC(NC(=O)OC(C)(C)C)C2)c1ccccc1)S(=O)(=O)c1ccccc1 (some centres unmarked) [Example 70]
< 100 nM | C[C@@H](NC(=O)N1CC2CCN(CC[C@](C)(CN(C)S(=O)(=O)c3ccccc3)c3ccccc3)C[C@@H]2C1)c1ccccc1 (some centres unmarked) [Example 12]
< 1000 nM | CC(C)(C)OC(=O)N1CC[C@H]2CN(C(=O)O[C@H]3CCOC3)C[C@H]2C1 [Example 74]
< 100 nM | Cc1nnc(C2CO[C@H]3OCCC23)n1C1CC2CCC(C1)N2CC[C@H](NC(=O)OCc1ccccc1)c1ccccc1 (some centres unmarked) [Example 80]
< 1000 nM | CN(CC(C)(CCN1CCC2C(CCN2C(=O)OC(C)(C)C)C1)c1ccccc1)S(=O)(=O)c1ccc(CNC(=O)OC(C)(C)C)cc1 (centres unmarked) [Example 39]
< 100 nM | CC(=O)OC(OC(C)=O)c1ccc(S(=O)(=O)N(C)CC(C)(CCN2CCC3C(CCN3C(=O)OC(C)(C)C)C2)c2ccccc2)cc1 (centres unmarked) [Example 35]
< 1000 nM | CC(C)(C)OC(=O)N1CCC2CN(C(=O)[C@@H](N)Cc3ccccc3)CCC21 (some centres unmarked) [Example 27]

IC50 | Compound
< 1000 nM | Cc1nc(COC(=O)N2C[C@H]3CN(CC[C@](C)(CN(C)S(=O)(=O)c4ccccc4)c4ccccc4)CC[C@H]3C2)c(C)o1 [Example 19]
< 100 nM | CC(C)COC(=O)NC1CC2CCC(C1)N2CC[C@](C)(CN(C)S(=O)(=O)c1ccccc1)c1ccccc1 (some centres unmarked) [Example 20]
< 1000 nM | CN(CC(C)(CCN1CCC2C(CCN2C(=O)OC2CCOC2)C1)c1ccccc1)S(=O)(=O)c1ccccc1 (centres unmarked) [Example 29]
< 1000 nM | CN(C[C@@](C)(CCN1CC[C@H]2CNC[C@H]2C1)c1ccccc1)S(=O)(=O)c1ccccc1 [Example 8]
< 100 nM | C[C@@H](NC(=O)N1CC2CCN(CC[C@](C)(CN(C)S(=O)(=O)c3ccccc3)c3ccccc3)C[C@@H]2C1)c1ccccc1 (some centres unmarked) [Example 13]
< 1000 nM | CN(CC(C)(CCN1CCC2C(CCN2C(=O)OC(C)(C)C)C1)c1ccccc1)S(=O)(=O)c1ccc(CNC(=O)OCc2ccccc2)cc1 (centres unmarked) [Example 37]
< 1000 nM | CN(C[C@@](C)(CCNC1C2CCC1CN(C(=O)OC(C)(C)C)C2)c1ccccc1)S(=O)(=O)c1ccccc1 (some centres unmarked) [Example 66]
< 1000 nM | CN(C[C@@](C)(CCN1CC[C@H]2OC(C)(C)O[C@H]2C1)c1ccccc1)S(=O)(=O)c1ccccc1 [Example 71]
< 1000 nM | CN(C[C@@](C)(CCN1CC2CN(C(=O)OC(C)(C)C)[C@H]2C1)c1ccccc1)S(=O)(=O)c1ccccc1 (some centres unmarked) [Example 64]
< 1000 nM | CN(C[C@@](C)(CCN1CC[C@H]2CN(C(=O)OCc3ccccc3)C[C@H]2C1)c1ccccc1)S(=O)(=O)c1ccccc1 [Example 75]
< 100 nM | CN(C[C@@](C)(CCN1CC[C@H]2CN(C(=O)OC(C)(C)C)C[C@H]2C1)c1ccccc1)S(=O)(=O)c1ccccc1 [Example 9]
< 1000 nM | CN(C[C@@](C)(CCN1CC[C@H]2CNC(=O)[C@H]2C1)c1ccccc1)S(=O)(=O)c1ccccc1 [Example 69]
< 100 nM | COc1ccc(C(C)(CCN2CCC3C(CCN3C(=O)OC(C)(C)C)C2)CN(C)S(=O)(=O)c2ccccc2)cc1 (centres unmarked) [Example 49]
< 1000 nM | CN(C[C@@](C)(CCNC1CC2CCC(C1)N2C(=O)OC(C)(C)C)c1ccccc1)S(=O)(=O)c1ccccc1 (some centres unmarked) [Example 67]
< 1 nM | CN(C[C@@](C)(CCN1CC[C@@H]2[C@@H](CCN2C(=O)OC(C)(C)C)C1)c1ccccc1)S(=O)(=O)c1ccc(CNC(=O)O[C@H]2CCOC2)cc1 [Example 4]
< 1000 nM | C[C@H](NC(=O)N1CC2CN(CC[C@](C)(CN(C)S(=O)(=O)c3ccccc3)c3ccccc3)CC[C@H]2C1)c1cccc2ccccc12 (some centres unmarked) [Example 79]
< 1000 nM | C[C@H](NC(=O)N1CC2CN(CC[C@](C)(CN(C)S(=O)(=O)c3ccccc3)c3ccccc3)CC[C@H]2C1)c1cccc2ccccc12 (some centres unmarked) [Example 17]
< 100 nM | CN(CC(C)(CCN1CCC2C(CCN2C(=O)OC(C)(C)C)C1)c1ccccc1)S(=O)(=O)c1ccc(CNC(=O)O[C@H]2CCOC2)cc1 (some centres unmarked) [Example 40]
< 1000 nM | Cc1ccc(S(=O)(=O)N2C[C@H]3CN(CC[C@](C)(CN(C)S(=O)(=O)c4ccccc4)c4ccccc4)CC[C@H]3C2)cc1 [Example 18]
